Experimental data reported in ChEMBL document CHEMBL1133840, “Enols as potent antibacterial agents” (2001).
≈ marks a conversion by molar mass, not a printed value.

How the values were obtained:
Format in all cases: functional
Enterococcus faecalis = experiment: Evaluated for its antibacterial activity against Enterococcus faecalis UC 9217
Escherichia coli = experiment: Evaluated for its antibacterial activity against Escherichia coli UC 6674
Haemophilus influenzae = experiment: Evaluated for its antibacterial activity against Haemophilus influenzae 30063
Klebsiella pneumoniae = experiment: Evaluated for its antibacterial activity against Klebsiella pneumoniae UC 12081
Pseudomonas aeruginosa = experiment: Evaluated for its antibacterial activity against Pseudomonas aeruginosa UC 6676
[1] = system: Staphylococcus epidermidis; experiment: Evaluated for its antibacterial activity against Staphylococcus epidermidis UC 12084
Staphylococcus aureus [2] = experiment: Evaluated for its antibacterial activity against Staphylococcus aureus UC 9218
Streptococcus pneumoniae = experiment: Evaluated for its antibacterial activity against Streptococcus pneumoniae UC 9912
Staphylococcus aureus [3] = experiment: Antibacterial activity against Staphylococcus aureus UC 9218 in the presence of 0% serum
Staphylococcus aureus [4] = experiment: Antibacterial activity against Staphylococcus aureus UC 9218 in the presence of 10% serum
Staphylococcus aureus [5] = experiment: Antibacterial activity against Staphylococcus aureus UC 9218 in the presence of 5% serum

SMILES	MIC (Enterococcus faecalis) [µg/mL]	MIC (Escherichia coli) [µg/mL]	MIC (Haemophilus influenzae) [µg/mL]	MIC (Klebsiella pneumoniae) [µg/mL]	MIC (Pseudomonas aeruginosa) [µg/mL]	MIC [1] [µg/mL]	MIC (Staphylococcus aureus [2]) [µg/mL]	MIC (Streptococcus pneumoniae) [µg/mL]	MIC (Staphylococcus aureus [3]) [µg/mL]	MIC (Staphylococcus aureus [4]) [µg/mL]	MIC (Staphylococcus aureus [5]) [µg/mL]
O=C(CO)N(CCc1cccc(C(F)(F)F)c1)c1cccc2ccccc12	> 128	> 128	> 128	> 128	> 128	> 128	32 (≈ 85.7 µM)	32 (≈ 85.7 µM)			
CSCC(=O)N(CCc1cccc(C(F)(F)F)c1)c1cccc2ccccc12	> 128	> 128	> 128	> 128	> 128	> 128	> 128	> 128			
Cc1ccccc1NCCc1cccc(C(F)(F)F)c1	2 (≈ 7.16 µM)	> 128	4 (≈ 14.3 µM)	> 128	> 128	2 (≈ 7.16 µM)	4 (≈ 14.3 µM)	1 (≈ 3.58 µM)	4	32	16
FC(F)(F)c1cccc(CCNc2ccc3ccccc3c2)c1	> 1	> 128	4 (≈ 12.7 µM)	> 128	> 128	2 (≈ 6.34 µM)	4 (≈ 12.7 µM)	2 (≈ 6.34 µM)	4	64	32
CN[C@H](CC(C)C)C(=O)N[C@H]1C(=O)N[C@@H](CC(N)=O)C(=O)N[C@H]2C(=O)N[C@H]3C(=O)N[C@H](C(=O)N[C@H](C(=O)O)c4cc(O)cc(O)c4-c4cc3ccc4O)[C@H](O)c3ccc(c(Cl)c3)Oc3cc2cc(c3O[C@@H]2O[C@H](CO)[C@@H](O)[C@H](O)[C@H]2O[C@H]2C[C@](C)(N)[C@H](O)[C@H](C)O2)Oc2ccc(cc2Cl)[C@H]1O [VANCOMYCIN]	1 (≈ 0.69 µM)							0.25 (≈ 0.173 µM)			
c1ccc(-c2ccc(CCNc3cccc4ccccc34)cc2)cc1	2 (≈ 6.18 µM)	> 128	64 (≈ 198 µM)	> 128	> 128	8 (≈ 24.7 µM)	8 (≈ 24.7 µM)	16 (≈ 49.5 µM)	8	128	64
C[S+]([O-])CC(=O)N(CCc1cccc(C(F)(F)F)c1)c1cccc2ccccc12 (stereo not drawn)	> 128	> 128	> 128	> 128	> 128	128 (≈ 305 µM)	128 (≈ 305 µM)	64 (≈ 153 µM)			
CC(=O)C(C#N)C(=O)N(CCc1cccc(C(F)(F)F)c1)c1cccc2ccccc12 (stereo not drawn)	4 (≈ 9.42 µM)	> 128	> 128	> 128	> 128	4 (≈ 9.42 µM)	8 (≈ 18.8 µM)	2 (≈ 4.71 µM)	8	128	128
O=C(CC(=O)C(F)(F)F)N(CCc1cccc(C(F)(F)F)c1)c1cccc2ccccc12	4 (≈ 8.82 µM)	> 128	8 (≈ 17.6 µM)	> 128	> 128	2 (≈ 4.41 µM)	2 (≈ 4.41 µM)	8 (≈ 17.6 µM)	2	64	16
CC(=O)CC(=O)N(CCc1cccc(C(F)(F)F)c1)c1cccc2ccccc12	> 128	> 128	> 128	> 128	> 128	> 128	> 128	32 (≈ 80.1 µM)			
CO/N=C(\C(=O)N[C@@H]1C(=O)N2C(C(=O)O)=C(COC(C)=O)CS[C@H]12)c1csc(N)n1 [CEFOTAXIME]		0.06 (≈ 0.132 µM)	0.015 (≈ 0.0329 µM)	0.06 (≈ 0.132 µM)	16 (≈ 35.1 µM)						
N#CCC(=O)N(CCc1cccc(C(F)(F)F)c1)c1cccc2ccccc12	> 128	> 128	> 128	> 128	> 128	> 128	> 128	16 (≈ 41.8 µM)			
COc1ccc(OC)c(CCNc2cccc3ccccc23)c1	16 (≈ 52.1 µM)	> 128	32 (≈ 104 µM)	> 128	> 128	16 (≈ 52.1 µM)	16 (≈ 52.1 µM)	16 (≈ 52.1 µM)	16	128	32
Clc1ccc(CCNc2cccc3ccccc23)c(Cl)c1	1 (≈ 3.16 µM)	> 128	1 (≈ 3.16 µM)	> 128	> 128	1 (≈ 3.16 µM)	2 (≈ 6.32 µM)	2 (≈ 6.32 µM)	2	64	16
FC(F)(F)c1cccc(CNc2cccc3ccccc23)c1	2 (≈ 6.64 µM)	> 128	32 (≈ 106 µM)	> 128	> 128	4 (≈ 13.3 µM)	2 (≈ 6.64 µM)	8 (≈ 26.6 µM)	2		
CCc1cccc2ccccc12	128 (≈ 819 µM)	> 128	> 128	> 128	> 128	128 (≈ 819 µM)	128 (≈ 819 µM)	32 (≈ 205 µM)	128	> 128	> 128
